In paper PMC5433425 (PeerJ, 2017):

Key:
E. coli AG100tet = experiment: EtBr efflux by real-time fluorometry; details: 80 µM
Procedure: Control tubes with only cells and cells with and without 0.4% glucose were included. The fluorescence was measured in a Rotor-Gene 3000 and the data was acquired every 30 s for 30 min at 37 °C. The efflux activity was quantified by comparing the fluorescence data obtained under conditions that promote efflux (presence of glucose and absence of efflux inhibitor) with the data from the control in which the bacteria are under conditions of no efflux (presence of an inhibitor and no energy source).

E. coli AG100A = experiment: microbe, parasite or virus in culture; format: cell-based, Escherichia coli
Procedure: The minimum inhibitory concentrations (MICs) were determined using the broth microdilution method according to the CLSI guidelines ([Clinical and Laboratory Standards Institute, 2014]). […] Two-fold serial dilutions of the compounds were made to achieve the following concentrations: 320 µM–40 µM. The MICs were determined as the lowest concentration at which no visible growth was observed after 18 h of incubation at 37 °C. The assays were performed in triplicate and the MIC value was given as result of at least two concordant values.

[1] = tested on: E. coli AG100tet (AcrAB overexpressing); experiment: MIC, broth microdilution; format: cell-based, Escherichia coli; details: E. coli AG100tet

Structure (SMILES): CCCOc1ccc(-c2cc(OCCN3CCNCC3)c3ccccc3n2)cc1 [PQQ4R, 4-(2-(piperazin-1-yl)ethoxy)-2-(4-propoxyphenyl) quinolone]
- Fluorescence raw data, Channel Cycling A.530/585hp (E. coli AG100tet; cycle 27, + glucose): 4.884
- Fluorescence raw data, Channel Cycling A.530/585hp (E. coli AG100tet; cycle 27, without glucose): 3.344
- Fluorescence raw data, Channel Cycling A.530/585hp (E. coli AG100tet; cycle 28, + glucose): 5.012
- Fluorescence raw data, Channel Cycling A.530/585hp (E. coli AG100tet; cycle 28, without glucose): 3.341
- Fluorescence raw data, Channel Cycling A.530/585hp (E. coli AG100tet; cycle 29, + glucose): 5.042
- Fluorescence raw data, Channel Cycling A.530/585hp (E. coli AG100tet; cycle 29, without glucose): 3.312
- Fluorescence raw data, Channel Cycling A.530/585hp (E. coli AG100tet; cycle 30, + glucose): 5.087
- Fluorescence raw data, Channel Cycling A.530/585hp (E. coli AG100tet; cycle 30, without glucose): 3.355
- Fluorescence raw data, Channel Cycling A.530/585hp (E. coli AG100tet; cycle 31, + glucose): 5.094
- Fluorescence raw data, Channel Cycling A.530/585hp (E. coli AG100tet; cycle 31, without glucose): 3.321
- Fluorescence raw data, Channel Cycling A.530/585hp (E. coli AG100tet; cycle 32, + glucose): 5.074
- Fluorescence raw data, Channel Cycling A.530/585hp (E. coli AG100tet; cycle 32, without glucose): 3.301
- Fluorescence raw data, Channel Cycling A.530/585hp (E. coli AG100tet; cycle 33, + glucose): 5.085
- Fluorescence raw data, Channel Cycling A.530/585hp (E. coli AG100tet; cycle 33, without glucose): 3.3487
- Fluorescence raw data, Channel Cycling A.530/585hp (E. coli AG100tet; cycle 34, + glucose): 5.136
- Fluorescence raw data, Channel Cycling A.530/585hp (E. coli AG100tet; cycle 34, without glucose): 3.377
- Fluorescence raw data, Channel Cycling A.530/585hp (E. coli AG100tet; cycle 35, + glucose): 5.101
- Fluorescence raw data, Channel Cycling A.530/585hp (E. coli AG100tet; cycle 35, without glucose): 3.39
- Fluorescence raw data, Channel Cycling A.530/585hp (E. coli AG100tet; cycle 36, + glucose): 5.167
- Fluorescence raw data, Channel Cycling A.530/585hp (E. coli AG100tet; cycle 36, without glucose): 3.3989
- Fluorescence raw data, Channel Cycling A.530/585hp (E. coli AG100tet; cycle 37, + glucose): 5.0249
- Fluorescence raw data, Channel Cycling A.530/585hp (E. coli AG100tet; cycle 37, without glucose): 3.336
- Fluorescence raw data, Channel Cycling A.530/585hp (E. coli AG100tet; cycle 38, + glucose): 5.139
- Fluorescence raw data, Channel Cycling A.530/585hp (E. coli AG100tet; cycle 38, without glucose): 3.322
- Fluorescence raw data, Channel Cycling A.530/585hp (E. coli AG100tet; cycle 39, + glucose): 5.07
- Fluorescence raw data, Channel Cycling A.530/585hp (E. coli AG100tet; cycle 39, without glucose): 3.367
- Fluorescence raw data, Channel Cycling A.530/585hp (E. coli AG100tet; cycle 40, + glucose): 5.071
- Fluorescence raw data, Channel Cycling A.530/585hp (E. coli AG100tet; cycle 40, without glucose): 3.292
- Fluorescence raw data, Channel Cycling A.530/585hp (E. coli AG100tet; cycle 41, + glucose): 5.036
- Fluorescence raw data, Channel Cycling A.530/585hp (E. coli AG100tet; cycle 41, without glucose): 3.413
- Fluorescence raw data, Channel Cycling A.530/585hp (E. coli AG100tet; cycle 42, + glucose): 4.946
- Fluorescence raw data, Channel Cycling A.530/585hp (E. coli AG100tet; cycle 42, without glucose): 3.2813
- Fluorescence raw data, Channel Cycling A.530/585hp (E. coli AG100tet; cycle 43, + glucose): 5.023
- Fluorescence raw data, Channel Cycling A.530/585hp (E. coli AG100tet; cycle 43, without glucose): 3.329
- Fluorescence raw data, Channel Cycling A.530/585hp (E. coli AG100tet; cycle 44, + glucose): 4.8625
- Fluorescence raw data, Channel Cycling A.530/585hp (E. coli AG100tet; cycle 44, without glucose): 3.331
- Fluorescence raw data, Channel Cycling A.530/585hp (E. coli AG100tet; cycle 45, without glucose): 3.333
- Fluorescence raw data, Channel Cycling A.530/585hp (E. coli AG100tet; cycle 46, without glucose): 3.356
- Fluorescence raw data, Channel Cycling A.530/585hp (E. coli AG100tet; cycle 47, without glucose): 3.3344
- Fluorescence raw data, Channel Cycling A.530/585hp (E. coli AG100tet; cycle 48, without glucose): 3.246
- Fluorescence raw data, Channel Cycling A.530/585hp (E. coli AG100tet; cycle 49, without glucose): 3.317
- Fluorescence raw data, Channel Cycling A.530/585hp (E. coli AG100tet; cycle 50, without glucose): 3.306
- Fluorescence raw data, Channel Cycling A.530/585hp (E. coli AG100tet; cycle 51, without glucose): 3.275
- Fluorescence raw data, Channel Cycling A.530/585hp (E. coli AG100tet; cycle 52, without glucose): 3.293
- Fluorescence raw data, Channel Cycling A.530/585hp (E. coli AG100tet; cycle 53, without glucose): 3.359
- Fluorescence raw data, Channel Cycling A.530/585hp (E. coli AG100tet; cycle 54, without glucose): 3.295
- Fluorescence raw data, Channel Cycling A.530/585hp (E. coli AG100tet; cycle 55, without glucose): 3.253
- Fluorescence raw data, Channel Cycling A.530/585hp (E. coli AG100tet; cycle 56, without glucose): 3.229
- Fluorescence raw data, Channel Cycling A.530/585hp (E. coli AG100tet; cycle 57, without glucose): 3.179
- Fluorescence raw data, Channel Cycling A.530/585hp (E. coli AG100tet; cycle 58, without glucose): 3.169
- Fluorescence raw data, Channel Cycling A.530/585hp (E. coli AG100tet; cycle 59, without glucose): 3.145
- Fluorescence raw data, Channel Cycling A.530/585hp (E. coli AG100tet; cycle 60, without glucose): 3.211
- Fluorescence raw data, Channel Cycling A.530/585hp (E. coli AG100tet; cycle 61, without glucose): 3.105
- MIC of EtBr in presence of the efflux inhibitor (E. coli AG100A; AG100A, inhibitor 40 μM): 0.39 µg/mL
- MIC of OFX in presence of the efflux inhibitor (E. coli AG100A; AG100A, inhibitor 40 μM): 0.03 µg/mL
- MIC of OXA in presence of the efflux inhibitor (E. coli AG100A; AG100A, inhibitor 40 μM): 1 µg/mL
- MIC of TET in presence of the efflux inhibitor (E. coli AG100A; AG100A, inhibitor 40 μM): 0.25 µg/mL
- effect on the MIC of the antibiotics (E. coli AG100A; AG100A, inhibitor 40 μM): no effect
- reduction in EtBr MIC (E. coli AG100A; AG100A, inhibitor 40 μM): ≈ 8 fold
- growth of AG100A in presence of the inhibitor (E. coli AG100A; concentrations above 40 µM): did not grow
- MIC [1]: >653.9 µM
